Measured values from the NIST ThermoML archive (doi:10.1016/j.fluid.2018.04.012).
Numbers after ± are expanded uncertainties.

Experiment: xn = mol fraction of the nth substance listed
Conditions: Liquid, Vibrating tube method

CC(C)OC(C)C [diisopropyl ether] + CC(C)O
mass density [kg/m3]
Conditions	x2 = 0.1503	x2 = 0.2979	x2 = 0.4228	x2 = 0.5	x2 = 0.6737	x2 = 0.8483
333.15 K, 130000 kPa	–	–	–	807.2 ± 1.2	815.2 ± 1.2	824.7 ± 1.1
333.15 K, 140000 kPa	799.3 ± 1.3	804.1 ± 1.3	808.6 ± 1.3	811.9 ± 1.3	819.7 ± 1.2	829.1 ± 1.2
353.19 K, 1000 kPa	665.8 ± 0.7	673.2 ± 0.7	680.7 ± 0.7	685.4 ± 0.7	698.3 ± 0.7	713.7 ± 0.7
353.19 K, 5000 kPa	673.7 ± 0.7	680.7 ± 0.7	687.7 ± 0.7	692.4 ± 0.7	704.7 ± 0.7	719.5 ± 0.7
353.19 K, 10000 kPa	682.3 ± 0.8	689.1 ± 0.8	695.5 ± 0.8	700.2 ± 0.7	711.9 ± 0.7	726.1 ± 0.7
353.19 K, 15000 kPa	690 ± 0.8	696.5 ± 0.8	702.7 ± 0.8	707.2 ± 0.8	718.5 ± 0.8	732.2 ± 0.8
353.19 K, 20000 kPa	696.9 ± 0.8	703.2 ± 0.8	709.2 ± 0.8	713.6 ± 0.8	724.5 ± 0.8	737.7 ± 0.8
353.19 K, 25000 kPa	703.3 ± 0.8	709.3 ± 0.8	715.3 ± 0.8	719.5 ± 0.8	730.1 ± 0.8	742.9 ± 0.8
353.19 K, 30000 kPa	709.2 ± 0.8	715.1 ± 0.8	720.9 ± 0.8	725 ± 0.8	735.3 ± 0.8	747.8 ± 0.8
353.19 K, 35000 kPa	714.7 ± 0.9	720.5 ± 0.9	726.2 ± 0.9	730.1 ± 0.8	740.2 ± 0.8	752.4 ± 0.8
353.19 K, 40000 kPa	719.8 ± 0.9	725.4 ± 0.9	731.2 ± 0.9	734.9 ± 0.9	744.8 ± 0.9	756.7 ± 0.8
353.19 K, 45000 kPa	724.6 ± 0.9	730.2 ± 0.9	735.9 ± 0.9	739.5 ± 0.9	749.2 ± 0.9	760.8 ± 0.9
353.19 K, 50000 kPa	729.4 ± 0.9	734.8 ± 0.9	740.3 ± 0.9	743.9 ± 0.9	753.5 ± 0.9	764.9 ± 0.9
353.19 K, 55000 kPa	733.7 ± 1	739 ± 1	744.5 ± 0.9	748 ± 0.9	757.3 ± 0.9	768.6 ± 0.9
353.19 K, 60000 kPa	737.8 ± 1	743.1 ± 1	748.6 ± 1	752 ± 1	761.1 ± 0.9	772.2 ± 0.9
353.19 K, 65000 kPa	741.9 ± 1	747.1 ± 1	752.5 ± 1	755.8 ± 1	764.9 ± 1	775.8 ± 0.9
353.19 K, 70000 kPa	745.7 ± 1	750.9 ± 1	756.2 ± 1	759.5 ± 1	768.4 ± 1	779.2 ± 1
353.19 K, 80000 kPa	752.9 ± 1.1	758 ± 1.1	763.2 ± 1.1	766.3 ± 1.1	775 ± 1	785.5 ± 1
353.19 K, 90000 kPa	759.7 ± 1.1	764.7 ± 1.1	769.7 ± 1.1	772.8 ± 1.1	781.4 ± 1.1	791.6 ± 1
353.19 K, 100000 kPa	766 ± 1.2	770.8 ± 1.2	775.8 ± 1.2	778.9 ± 1.1	787.2 ± 1.1	797.2 ± 1.1
353.19 K, 110000 kPa	772 ± 1.2	776.8 ± 1.2	781.5 ± 1.2	784.7 ± 1.2	792.9 ± 1.2	802.7 ± 1.1
353.19 K, 120000 kPa	777.6 ± 1.3	782.3 ± 1.3	786.9 ± 1.2	790.1 ± 1.2	798.1 ± 1.2	807.7 ± 1.2
353.19 K, 130000 kPa	782.9 ± 1.3	787.6 ± 1.3	792.1 ± 1.3	795.2 ± 1.3	803.1 ± 1.2	812.6 ± 1.2
353.19 K, 140000 kPa	788.1 ± 1.4	792.7 ± 1.3	797 ± 1.3	800.2 ± 1.3	808 ± 1.3	817.4 ± 1.2
373.24 K, 1000 kPa	641 ± 0.7	648.3 ± 0.7	655.6 ± 0.7	660.4 ± 0.7	673.6 ± 0.7	689.6 ± 0.7
373.24 K, 5000 kPa	650.7 ± 0.7	657.5 ± 0.7	664.2 ± 0.7	669 ± 0.7	681.4 ± 0.7	696.7 ± 0.7
373.24 K, 10000 kPa	661 ± 0.8	667.6 ± 0.8	673.7 ± 0.8	678.3 ± 0.8	690.1 ± 0.8	704.5 ± 0.7
373.24 K, 15000 kPa	670 ± 0.8	676.2 ± 0.8	682.1 ± 0.8	686.6 ± 0.8	697.9 ± 0.8	711.6 ± 0.8
373.24 K, 20000 kPa	678.1 ± 0.8	684.1 ± 0.8	689.7 ± 0.8	694 ± 0.8	704.8 ± 0.8	718 ± 0.8
373.24 K, 25000 kPa	685.3 ± 0.8	691.1 ± 0.8	696.6 ± 0.8	700.8 ± 0.8	711.2 ± 0.8	724 ± 0.8
373.24 K, 30000 kPa	692 ± 0.9	697.6 ± 0.8	703 ± 0.8	707 ± 0.8	717.1 ± 0.8	729.5 ± 0.8
373.24 K, 35000 kPa	698.1 ± 0.9	703.6 ± 0.9	708.9 ± 0.9	712.8 ± 0.9	722.6 ± 0.9	734.7 ± 0.8
373.24 K, 40000 kPa	703.9 ± 0.9	709.2 ± 0.9	714.5 ± 0.9	718.1 ± 0.9	727.8 ± 0.9	739.6 ± 0.9
373.24 K, 45000 kPa	709.2 ± 0.9	714.5 ± 0.9	719.6 ± 0.9	723.3 ± 0.9	732.7 ± 0.9	744.3 ± 0.9
373.24 K, 50000 kPa	714.2 ± 1	719.3 ± 1	724.5 ± 0.9	728 ± 0.9	737.2 ± 0.9	748.6 ± 0.9
373.24 K, 55000 kPa	719.1 ± 1	724.1 ± 1	729.2 ± 1	732.6 ± 1	741.7 ± 0.9	752.7 ± 0.9
373.24 K, 60000 kPa	723.5 ± 1	728.5 ± 1	733.6 ± 1	736.9 ± 1	745.8 ± 1	756.7 ± 0.9
373.24 K, 65000 kPa	727.8 ± 1	732.8 ± 1	737.8 ± 1	741.1 ± 1	749.8 ± 1	760.5 ± 1
373.24 K, 70000 kPa	732 ± 1.1	736.8 ± 1.1	741.8 ± 1	745 ± 1	753.6 ± 1	764.2 ± 1
373.24 K, 80000 kPa	739.7 ± 1.1	744.5 ± 1.1	749.3 ± 1.1	752.6 ± 1.1	760.9 ± 1.1	771.2 ± 1
373.24 K, 90000 kPa	747 ± 1.2	751.7 ± 1.2	756.3 ± 1.1	759.4 ± 1.1	767.7 ± 1.1	777.7 ± 1.1
373.24 K, 100000 kPa	753.7 ± 1.2	758.3 ± 1.2	762.8 ± 1.2	765.9 ± 1.2	774 ± 1.2	783.8 ± 1.1
373.24 K, 110000 kPa	760 ± 1.3	764.5 ± 1.3	768.9 ± 1.2	772 ± 1.2	779.9 ± 1.2	789.5 ± 1.2
373.24 K, 120000 kPa	765.9 ± 1.3	770.4 ± 1.3	774.7 ± 1.3	777.8 ± 1.3	785.5 ± 1.2	795 ± 1.2
373.24 K, 130000 kPa	771.6 ± 1.4	776 ± 1.4	780.2 ± 1.3	783.3 ± 1.3	790.9 ± 1.3	800.2 ± 1.2
373.24 K, 140000 kPa	776.9 ± 1.4	781.3 ± 1.4	785.3 ± 1.4	788.5 ± 1.4	796 ± 1.3	805.1 ± 1.3
393.28 K, 1000 kPa	614.1 ± 0.7	620.6 ± 0.7	627.9 ± 0.7	632.9 ± 0.7	645.9 ± 0.7	662.5 ± 0.7
393.28 K, 5000 kPa	626.4 ± 0.8	632.4 ± 0.7	638.9 ± 0.7	643.7 ± 0.7	655.9 ± 0.7	671.3 ± 0.7
393.28 K, 10000 kPa	639 ± 0.8	644.7 ± 0.8	650.5 ± 0.8	655.2 ± 0.8	666.5 ± 0.8	680.9 ± 0.8
393.28 K, 15000 kPa	649.7 ± 0.8	655.1 ± 0.8	660.6 ± 0.8	665.1 ± 0.8	675.7 ± 0.8	689.4 ± 0.8
393.28 K, 20000 kPa	658.9 ± 0.8	664.1 ± 0.8	669.5 ± 0.8	673.7 ± 0.8	683.9 ± 0.8	696.9 ± 0.8
393.28 K, 25000 kPa	667.1 ± 0.8	672.2 ± 0.8	677.4 ± 0.8	681.4 ± 0.8	691.2 ± 0.8	703.8 ± 0.8
393.28 K, 30000 kPa	674.7 ± 0.9	679.5 ± 0.9	684.6 ± 0.9	688.5 ± 0.9	698 ± 0.8	710.1 ± 0.8
393.28 K, 35000 kPa	681.5 ± 0.9	686.3 ± 0.9	691.3 ± 0.9	695.1 ± 0.9	704.2 ± 0.9	716 ± 0.9
393.28 K, 40000 kPa	687.8 ± 0.9	692.5 ± 0.9	697.4 ± 0.9	701 ± 0.9	710.1 ± 0.9	721.5 ± 0.9
393.28 K, 45000 kPa	693.6 ± 1	698.2 ± 0.9	703.2 ± 0.9	706.6 ± 0.9	715.4 ± 0.9	726.6 ± 0.9
393.28 K, 50000 kPa	699.1 ± 1	703.7 ± 1	708.6 ± 1	711.8 ± 1	720.5 ± 0.9	731.5 ± 0.9
393.28 K, 55000 kPa	704.5 ± 1	708.9 ± 1	713.6 ± 1	716.9 ± 1	725.4 ± 1	736.2 ± 1
393.28 K, 60000 kPa	709.2 ± 1	713.7 ± 1	718.4 ± 1	721.6 ± 1	729.9 ± 1	740.5 ± 1
393.28 K, 65000 kPa	713.9 ± 1.1	718.3 ± 1.1	723 ± 1	726 ± 1	734.3 ± 1	744.7 ± 1
393.28 K, 70000 kPa	718.4 ± 1.1	722.8 ± 1.1	727.3 ± 1.1	730.4 ± 1.1	738.5 ± 1	748.8 ± 1
393.28 K, 80000 kPa	726.7 ± 1.2	731 ± 1.1	735.5 ± 1.1	738.5 ± 1.1	746.4 ± 1.1	756.3 ± 1.1
393.28 K, 90000 kPa	734.4 ± 1.2	738.6 ± 1.2	742.9 ± 1.2	746.1 ± 1.2	753.7 ± 1.1	763.4 ± 1.1
393.28 K, 100000 kPa	741.5 ± 1.3	745.6 ± 1.3	749.9 ± 1.2	752.9 ± 1.2	760.4 ± 1.2	769.9 ± 1.2
393.28 K, 110000 kPa	748.3 ± 1.3	752.4 ± 1.3	756.4 ± 1.3	759.5 ± 1.3	766.8 ± 1.2	776.1 ± 1.2
393.28 K, 120000 kPa	754.5 ± 1.4	758.5 ± 1.4	762.5 ± 1.3	765.5 ± 1.3	772.8 ± 1.3	781.8 ± 1.3
393.28 K, 130000 kPa	760.4 ± 1.4	764.4 ± 1.4	768.3 ± 1.4	771.3 ± 1.4	778.4 ± 1.3	787.4 ± 1.3
393.28 K, 140000 kPa	766.1 ± 1.5	770 ± 1.4	773.8 ± 1.4	776.8 ± 1.4	783.9 ± 1.4	792.7 ± 1.3
